The record followed here is ChEMBL document CHEMBL1201862, “PubChem BioAssay data set” (2004).

The structures appear in SMILES notation.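 The compound was tested at five concentrations on cells cultured in 96-well plates, with a 48-hour exposure period. At the GI50, growth is halved.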 The source made the active and inactive calls. Rule as the data show it: active = GI50 up to about 1.1 µM and inactive = higher. Bounds are passed on as bounds.

Experiment in all cases: NCI-60 cell line screen, 48 h
Experiment [1] deals with BT-549.
Experiment [2] has as its system MDA-N.
Experiment [3] relates to PC-3.

Take `COc1cc(/C=C2/SC(c3ccccc3)N(c3ccccc3)C2=O)cc(OC)c1OC` (stereo not given): the GI50 in experiment [1] was 29 µM (inactive).
On to `CCNc1cc2c(cc1O)CC[C@@H]1[C@@H]2CC[C@]2(C)[C@@H](O)CC[C@@H]12`, for which the GI50 in experiment [2] is 0.232 µM (active); in experiment [1], 15.6 µM (inactive); in experiment [3] it was 9.91 µM (inactive).
On to `CCN(CC)C(=O)N1CN(c2ccccc2)C2(CCN(CCCC3(c4ccc(F)cc4)OCCO3)CC2)C1=O`, for which the GI50 in experiment [2] is 19.1 µM (inactive); in experiment [1], 12.5 µM (inactive); in experiment [3] it was 17.5 µM (inactive).
For `CC1CC(C)CN(S(=O)(=O)c2cc(Cl)c(Oc3ccc([N+](=O)[O-])cc3Cl)c(Cl)c2)C1` (stereo not given), the GI50 in experiment [2], in experiment [1] and in experiment [3] was > 100 µM (inactive) each time.
With `CN1C(=O)c2ccccc2OC12C=Cc1ccc(O)cc1O2` (stereo not given), the results for the GI50 in experiment [2], in experiment [1] and in experiment [3] were 31 µM (inactive), 30.8 µM (inactive) and 21.3 µM (inactive), respectively.
In the case of `COc1ccc(CC(COS(=O)(=O)c2ccc(C)cc2)NS(=O)(=O)c2ccc(C)cc2)cc1` (stereo not given), the GI50 is 19.6 µM (inactive) in experiment [2], 5.71 µM (inactive) in experiment [1] and 14.8 µM (inactive) in experiment [3].
In the same order, the values of `CN(C)C(=S)C(Cl)(c1ccccc1)c1ccccc1` are 47.6 µM (inactive), > 100 µM (inactive) and 35.6 µM (inactive).
`CCOC(=O)C1=C(C)N(Cc2ccc(Cl)cc2Cl)C2(O)C=CC(=O)C3C(=O)N(c4ccccc4)C(=O)C132` (stereo not given): the GI50 in experiment [1] was 1.3 µM (inactive); in experiment [3], 1.5 µM (inactive).
Consider `O/N=N/c1ccccn1.OCC1OC2OC3C(CO)OC(OC4C(CO)OC(OC5C(CO)OC(OC6C(CO)OC(OC7C(CO)OC(OC1C(O)C2O)C(O)C7O)C(O)C6O)C(O)C5O)C(O)C4O)C(O)C3O` (stereo not given), for which the GI50 is 19.9 µM (inactive) in experiment [2], 30.8 µM (inactive) in experiment [1] and 65.3 µM (inactive) in experiment [3].
As to `Nc1nc2c(ncn2Cc2ccc(CO)cc2)c(=O)[nH]1`, the GI50 in experiment [1] and in experiment [3] was > 100 µM (inactive) in each case.
For `COc1ccc(/C=C2\NC(=S)N(CN3CCCCC3)C2=O)cc1`, the GI50 is 70.1 µM (inactive) in experiment [2] and 78.7 µM (inactive) in experiment [3].
Turning to `FC(F)(F)c1nc2cc(SSc3cc4nc(C(F)(F)F)[nH]c4cc3Cl)c(Cl)cc2[nH]1`, the GI50 in experiment [1] and in experiment [3] was > 100 µM (inactive) in each case.
Take `COc1cc(OC)nc(NC(=O)NS(=O)(=O)c2cccc3ncn(C)c(=O)c23)n1`: the GI50 in experiment [2] is > 100 µM (inactive).
As to `CCC1CCN=C(Cn2cc(C)c(=O)[nH]c2=O)N1` (stereo not given), the GI50 in experiment [2], in experiment [1] and in experiment [3] was > 100 µM (inactive) throughout.
With `C=C1CC2(CCCC3(CC(=C)C(=O)O3)C2(C)C)OC1=O` (stereo not given), the GI50 in experiment [1] was 3.75 µM (inactive); in experiment [3], 8.09 µM (inactive).
Consider `CCOC(=O)CCSS(=O)(=O)c1ccccc1`, for which the GI50 in experiment [2], in experiment [1] and in experiment [3] was > 100 µM (inactive) in each case.
Regarding `N#Cc1cc(C#N)c(N)nc1N`, the GI50 in experiment [2], in experiment [1] and in experiment [3] was > 100 µM (inactive) each time.
Consider `COc1ccc2c(C)c(Oc3c(Cl)c(Cl)c(O)c(C#N)c3C#N)oc2c1`, for which the GI50 in experiment [2], in experiment [1] and in experiment [3] was > 100 µM (inactive) in each case.
As for `OCCSCC(O)Cn1cnc2c(O)nc(Nc3ccccc3)nc21` (stereo not given), the GI50 in experiment [2], in experiment [1] and in experiment [3] was > 100 µM (inactive) each time.
For `CN(C(=O)c1ccc(Cl)cc1)C(=S)N1CCN(c2ccccc2)CC1`, the GI50 in experiment [2] and in experiment [1] was > 100 µM (inactive) each time.
With `CCOC(=O)c1c(CN2CCOCC2)n(Cc2ccccc2)c2c1cc(O)c1nc(C)c(C)nc12`, the results for the GI50 in experiment [2], in experiment [1] and in experiment [3] were 72.8 µM (inactive), 11.5 µM (inactive) and 17.5 µM (inactive), respectively.
For `Oc1cc(-c2ccc(Cl)cc2)cn2c1nc1ccccc12`, the GI50 in experiment [2] was 2.99 µM (inactive); in experiment [3] it was > 100 µM (inactive).
For `COc1ccc2c(c1)C(=O)CCc1cc(OC)c(OC)c(OC)c1-2`, the GI50 in experiment [3] is 0.0474 µM (active).
With `CCOC(=O)c1c(C)n(-c2ccc(C)cc2)c2c1cc(O)c1[nH]c3c(c12)CCCC3`, the GI50 was 20.6 µM (inactive) in experiment [2], 10.1 µM (inactive) in experiment [1] and 12.9 µM (inactive) in experiment [3].
The like results for `N#C/N=C1/c2ccccc2/C(=N/C#N)c2cc(CO)ccc21` were, in that order, 36.6 µM (inactive), 18 µM (inactive) and 33.7 µM (inactive).
The like results for `N#Cc1nc(-c2ccco2)oc1N` were, in that order, > 10 µM (inactive), > 10 µM (inactive) and > 10 µM (inactive).
Take `Cc1ccc(Nc2n[nH]c(=S)s2)cc1`: the GI50 in experiment [2] was 59.4 µM (inactive); in experiment [3] it was > 100 µM (inactive).
In the case of `CC(C)CCCC(C)[C@H]1CCC2[C@@H]3CCC4Cc5nc6c(nc5C[C@]4(C)C3CC[C@@]21C)CC1CC[C@@H]2C(CC[C@@]3(C)C2CC[C@@H]3C(C)CCCC(C)C)[C@@]1(C)C6` (stereo not given in full), the GI50 in experiment [2], in experiment [1] and in experiment [3] was > 100 µM (inactive) in each case.
On to `COc1ccc(-n2c(N)c(C#N)[nH]c2=O)cc1`, for which the GI50 in experiment [2] and in experiment [3] was > 10 µM (inactive) in each case.
For `O=C(O)C1CCCN1Cc1ccc2c(c1)OCO2` (stereo not given), the GI50 in experiment [2], in experiment [1] and in experiment [3] was > 100 µM (inactive) each time.
As to `CCCSc1ccc2[nH]c(N3C(=O)/C(=C/c4ccco4)N=C3c3ccccc3)cc2c1`, the GI50 was 6 µM (inactive) in experiment [2], 32.7 µM (inactive) in experiment [1] and 21.3 µM (inactive) in experiment [3].
In the same order, the values of `Cc1cn(CC2=NCCN2)c(=O)[nH]c1=O` are > 100 µM (inactive), > 100 µM (inactive) and > 100 µM (inactive).
As for `Oc1ccc(-c2nc(-c3ccc4ccccc4n3)c(-c3ccc(F)cc3)[nH]2)cc1`, the figures for the GI50 in experiment [2], in experiment [1] and in experiment [3] were 11.9 µM (inactive), 17.7 µM (inactive) and 9.08 µM (inactive), respectively.
On to `Cc1ccc(C(=O)Nc2ccc(CP(=O)(O)O)cc2)cc1NC(=O)c1cccc(N)c1`, for which the GI50 in experiment [2], in experiment [1] and in experiment [3] was > 100 µM (inactive) in each case.
As for `CSc1c(C(N)=S)c(N)nn1-c1ccccc1`, the GI50 in experiment [1] and in experiment [3] was > 100 µM (inactive) throughout.
Regarding `O=S(=O)(O)c1cc(/N=N/c2c(O)ccc3ccccc23)ccc1/C=C/c1ccc(/N=N/c2c(O)ccc3ccccc23)cc1S(=O)(=O)O`, the GI50 in experiment [2], in experiment [1] and in experiment [3] was > 100 µM (inactive) throughout.
In the case of `CCCCc1ccc(-n2sc3ncc([N+](=O)[O-])cc3c2=O)cc1`, the figures for the GI50 in experiment [2], in experiment [1] and in experiment [3] were 14.8 µM (inactive), 17.2 µM (inactive) and 5.55 µM (inactive), respectively.
For `CC(=O)N1C(Nc2cccc3nc(C)ccc23)CCN1c1ccccc1` (stereo not given), the GI50 in experiment [2], in experiment [1] and in experiment [3] was > 10 µM (inactive) each time.
`O=c1[nH]c(=O)n(C2OC(CO)C(O)C2O)cc1OCCc1ccccc1` (stereo not given): the GI50 in experiment [2] and in experiment [3] was > 100 µM (inactive) each time.
